Paper PMC11460631, “Inhibition of transient receptor potential vanilloid 3 channels by antimalarial hydroxychloroquine alleviates TRPV3-dependent dermatitis” (The Journal of Biological Chemistry, 2024)

Assays:
[1] = target: T1, mTRPM8 (Mus musculus, UniProt Q8R4D5); test: Whole-cell current recordings, mTRPM8; type: cell-based, murine
T1 construct: YFP or GFP; expressed in transfected cells; host or cells: HEK293T
Protocol: To elucidate the specificity of HCQ inhibition on TRPV3, we conducted whole-cell current recordings on other known pruritus-related TRP channels, such as hTRPA1, mTRPV1, mTRPV4, and mTRPM8 (Fig. 3, A and F). […] Because of the relatively larger inhibition of HCQ on mTRPM8 current, we tested the concentration dependence of HCQ on mTRPM8 channels.
HEK293T cells are cultured using Dulbecco's modified Eagle's medium containing 10% fetal bovine serum and 1% penicillin-streptomycin in a cell incubator with 5% CO2 at 37 °C. Plasmids of murine TRPV1, TRPV4, TRPM8, and human TRPV3, TRPA1 are labeled with YFP or GFP as indicators for subsequent electrophysiological recordings. Complementary DNA constructs of ion channels were transiently transfected with Lipofectamine 3000 (Invitrogen). And 12 to 18 h after transient transfection, electrophysiological recordings were performed.
Patch-clamp recordings were carried out with a HEKA EPC10 amplifier controlled by PatchMaster software (HEKA; https://www.heka.com/products/products_main.html#soft_pm) ([36]). Patch pipettes were prepared from borosilicate glass and fire-polished to the resistance of 3 to 8 MΩ by P-97 puller for whole-cell recordings. For single-channel recordings, patch pipettes were fire-polished to a higher resistance of 6 to 10 MΩ. Both bath solution and pipette solution contained 130 mM NaCl, 10 mM glucose, 0.2 mM EDTA, and 3 mM Hepes and were adjusted to pH 7.2 to 7.4 with NaOH. Whole-cell recordings and single-channel recordings were performed at ± 80 mV. The current was sampled at 10 kHz and filtered at 2.9 kHz. All recordings were performed at room temperature (25 °C). A gravity-driven system (RSC-200, Bio-Logic) with freely rotated perfusion tubes was used for the perfusion of ligands. Bath and ligand solutions were delivered through separate tubes to minimize the mixing of solutions. […]
(§1) All data from whole-cell recordings were analyzed in Igor Pro (WaveMetrics). IC50 values were determined by fitting the Hill equation to concentration-response relationships. […]

[2] = target: T2, TRPV3 N671Q mutant (Homo sapiens, UniProt Q8NET8, N671Q); test: Whole-cell recording of TRPV3 N671Q mutant; type: cell-based
T2 construct: YFP or GFP; expressed in transfected cells; host or cells: HEK293T
T2 sequence (Q8NET8 1-790 N671Q): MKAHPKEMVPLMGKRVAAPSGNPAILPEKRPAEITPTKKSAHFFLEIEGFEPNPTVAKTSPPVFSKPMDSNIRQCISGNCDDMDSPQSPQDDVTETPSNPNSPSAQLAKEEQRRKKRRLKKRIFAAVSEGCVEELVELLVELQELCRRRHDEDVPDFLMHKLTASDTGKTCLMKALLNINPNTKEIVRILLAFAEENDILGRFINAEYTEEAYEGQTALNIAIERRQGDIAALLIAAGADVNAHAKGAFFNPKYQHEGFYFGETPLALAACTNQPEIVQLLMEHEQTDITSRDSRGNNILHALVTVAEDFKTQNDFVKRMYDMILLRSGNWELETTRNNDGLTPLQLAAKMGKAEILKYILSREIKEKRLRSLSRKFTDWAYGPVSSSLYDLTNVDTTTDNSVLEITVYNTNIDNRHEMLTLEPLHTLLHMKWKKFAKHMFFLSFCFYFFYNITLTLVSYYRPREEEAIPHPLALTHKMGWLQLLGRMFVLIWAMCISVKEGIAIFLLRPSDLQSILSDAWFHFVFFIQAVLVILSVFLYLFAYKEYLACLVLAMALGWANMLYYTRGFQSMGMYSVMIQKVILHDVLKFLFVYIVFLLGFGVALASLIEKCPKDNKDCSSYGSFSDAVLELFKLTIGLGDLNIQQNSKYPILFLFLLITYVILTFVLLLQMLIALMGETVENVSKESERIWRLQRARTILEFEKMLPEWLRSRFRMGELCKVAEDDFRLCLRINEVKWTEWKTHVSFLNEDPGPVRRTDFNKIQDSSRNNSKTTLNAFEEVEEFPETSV
Excerpt: As we mentioned above, HCQ may act as a pore blocker of TRPV3. To probe the binding configuration of HCQ to TRPV3, we carried out molecular docking using Rosetta suite (https://rosettacommons.org) ([21]) and validated the docking models with point mutations in TRPV3 (Fig. 4A). […] Furthermore, when we introduced L670A to L591A mutant, we also observed a left shift on the concentration–response curve on this double mutant as compared to L591A mutant (Fig. 4H).
Figure 4 Residues of the pore domain are critical for HCQ inhibition on TRPV3.A, left panel, docking model of HCQ to the pore domain of TRPV3 structure (6uw4). Right panels, top view and side view of the HCQ-binding pocket. B-J, representative whole-cell recording of TRPV3 and mutants in response to 1 mM 2-APB, the mixture of 1 mM 2-APB and concentration gradients of HCQ with the holding potential of ± 80 mV. K, concentration–response curves of HCQ in WT TRPV3 and mutants (n = 3–5 cells). L, quantification of the inhibitory ratio of HCQ (100 μM) on WT, L591A, and N671Q. […]
as §1

T1 sequence (Q8R4D5 whole entry): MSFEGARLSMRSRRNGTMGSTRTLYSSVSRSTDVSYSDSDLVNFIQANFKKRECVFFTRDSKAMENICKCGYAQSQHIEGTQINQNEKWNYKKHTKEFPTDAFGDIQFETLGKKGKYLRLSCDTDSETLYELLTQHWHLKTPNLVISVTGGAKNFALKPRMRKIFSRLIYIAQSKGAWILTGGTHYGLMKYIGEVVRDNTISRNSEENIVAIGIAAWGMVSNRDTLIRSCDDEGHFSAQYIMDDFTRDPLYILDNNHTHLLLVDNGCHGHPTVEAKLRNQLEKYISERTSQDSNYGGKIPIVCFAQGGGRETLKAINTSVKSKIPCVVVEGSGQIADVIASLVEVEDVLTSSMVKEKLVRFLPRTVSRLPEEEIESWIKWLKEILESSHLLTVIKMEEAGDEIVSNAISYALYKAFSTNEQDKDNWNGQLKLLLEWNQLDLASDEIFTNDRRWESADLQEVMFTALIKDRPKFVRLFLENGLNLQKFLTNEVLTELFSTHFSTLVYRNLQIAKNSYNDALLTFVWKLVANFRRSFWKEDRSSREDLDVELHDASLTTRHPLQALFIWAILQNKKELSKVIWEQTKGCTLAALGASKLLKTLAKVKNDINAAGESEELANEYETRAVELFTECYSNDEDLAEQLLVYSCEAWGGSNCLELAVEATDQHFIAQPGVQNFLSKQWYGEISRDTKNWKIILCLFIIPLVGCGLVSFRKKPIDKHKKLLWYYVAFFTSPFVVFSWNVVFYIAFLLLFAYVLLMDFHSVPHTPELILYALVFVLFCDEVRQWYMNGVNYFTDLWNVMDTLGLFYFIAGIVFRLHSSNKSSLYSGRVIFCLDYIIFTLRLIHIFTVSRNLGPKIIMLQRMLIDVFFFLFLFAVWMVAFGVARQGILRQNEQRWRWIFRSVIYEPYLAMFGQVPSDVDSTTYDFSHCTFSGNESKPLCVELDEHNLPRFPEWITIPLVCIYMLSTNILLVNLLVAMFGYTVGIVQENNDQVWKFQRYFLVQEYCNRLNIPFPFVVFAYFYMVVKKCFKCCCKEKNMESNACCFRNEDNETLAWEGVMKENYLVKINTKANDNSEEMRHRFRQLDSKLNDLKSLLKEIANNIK

reduction of mTRPM8 current ([1]; 100 μM HCQ, current activated by 1 mM menthol): 27.94% ± 10.91%
IC50 ([1]; concentration dependence, whole-cell, read-out: IC50 on mTRPM8 channels): 263 ± 88.6 µM
IC50 of mTRPM8 relative to IC50 of hTRPV3 ([1]; selectivity ratio): more than 5 fold
inhibition at 100 µM ([2]; 100 μM HCQ): 27.8%
IC50 ([2]; 1 mM 2-APB, ± 80 mV): 133 ± 8.6 µM
Compound: CCN(CCO)CCCC(C)Nc1ccnc2cc(Cl)ccc12 (centres unmarked) [HCQ, hydroxychloroquine]
